Reference: patent US7781591B2, “Substituted 3-cyanopyridines as protein kinase inhibitors” (Wyeth LLC, priority 2006, dated 2010)

The molecules below were run against T1, human PKCθ full length enzyme (Homo sapiens, UniProt Q04759) (assay: PKCθ IMAP assay (fluorescence polarization)). Conditions: human PKCθ full length enzyme, IMAP; average value; read-out: IC50 PKCθ IMAP.
T1 construct: human PKCθ full length enzyme (Panvera Cat# P2996); purchased Panvera P2996
T1 sequence (Q04759 whole entry): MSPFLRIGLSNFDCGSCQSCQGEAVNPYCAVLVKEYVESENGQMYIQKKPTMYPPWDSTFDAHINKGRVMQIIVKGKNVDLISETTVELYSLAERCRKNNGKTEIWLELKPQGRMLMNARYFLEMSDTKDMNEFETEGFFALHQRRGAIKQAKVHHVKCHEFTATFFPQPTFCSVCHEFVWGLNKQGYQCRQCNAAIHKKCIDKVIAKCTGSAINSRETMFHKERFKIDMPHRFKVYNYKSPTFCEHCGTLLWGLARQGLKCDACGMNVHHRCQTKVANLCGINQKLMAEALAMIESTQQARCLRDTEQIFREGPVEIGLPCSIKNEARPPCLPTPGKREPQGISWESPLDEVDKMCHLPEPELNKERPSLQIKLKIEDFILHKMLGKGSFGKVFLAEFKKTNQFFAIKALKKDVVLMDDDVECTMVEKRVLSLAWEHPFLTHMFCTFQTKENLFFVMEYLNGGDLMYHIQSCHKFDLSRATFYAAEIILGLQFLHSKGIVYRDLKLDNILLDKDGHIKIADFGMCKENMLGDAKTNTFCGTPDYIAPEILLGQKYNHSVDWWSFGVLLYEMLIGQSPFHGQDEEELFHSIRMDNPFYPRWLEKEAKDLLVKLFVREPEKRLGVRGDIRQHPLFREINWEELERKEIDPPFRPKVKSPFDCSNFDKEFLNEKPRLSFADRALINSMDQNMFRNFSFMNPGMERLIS
Type: biochemical
For CN(C)c1cccc(-c2cncc(C#N)c2Nc2cccc3[nH]ccc23)c1 [Compound 254, 5-[3-(dimethylamino)phenyl]-4-(1H-indol-4-ylamino)nicotinonitrile], the IC50 was 80 nM.
In the case of CS(=O)(=O)c1cccc(-c2cncc(C#N)c2Nc2cccc3[nH]ccc23)c1 [Compound 255, 4-(1H-indol-4-ylamino)-5-[3-(methylsulfonyl)phenyl]nicotinonitrile], the IC50 is reported as 80 nM.
CS(=O)(=O)Nc1cccc(-c2cncc(C#N)c2Nc2cccc3[nH]ccc23)c1 [Compound 256, N-{3-[5-cyano-4-(1H-indol-4-ylamino)pyridin-3-yl]phenyl}methanesulfonamide] gave an IC50 of 20 nM.
N#Cc1cncc(-c2ccccc2)c1Nc1ccc2[nH]ccc2c1 [Compound 257, 4-(1H-indol-5-ylamino)-5-phenylnicotinonitrile] showed an IC50 of 100 nM.
Molecule N#Cc1cncc(-c2ccsc2)c1Nc1ccc2[nH]ccc2c1 [Compound 258, 4-(1H-indol-5-ylamino)-5-(3-thienyl)nicotinonitrile] has an IC50 of 100 nM.
In the case of N#Cc1cncc(-c2cccnc2)c1Nc1ccc2[nH]ccc2c1 [Compound 259, 4-(1H-indol-5-ylamino)-3,3′-bipyridine-5-carbonitrile], the IC50 is reported as 1370 nM.
N#Cc1cncc(-c2ccc3c(c2)OCO3)c1Nc1ccc2[nH]ccc2c1 [Compound 260, 5-(1,3-benzodioxol-5-yl)-4-(1H-indol-5-ylamino)nicotinonitrile] was tested, and the IC50 was 70 nM.
Work on N#Cc1cncc(-c2ccncc2)c1Nc1ccc2[nH]ccc2c1 [Compound 261, 4-(1H-indol-5-ylamino)-3,4′-bipyridine-5-carbonitrile] yielded an IC50 of 80 nM.
N#Cc1cncc(-c2ccoc2)c1Nc1ccc2[nH]ccc2c1 [Compound 262, 5-(3-furyl)-4-(1H-indol-5-ylamino)nicotinonitrile] gave an IC50 of 120 nM.
N#Cc1cncc(-c2ccc3[nH]ccc3c2)c1Nc1ccc2[nH]ccc2c1 [Compound 263, 5-(1H-indol-5-yl)-4-(1H-indol-5-ylamino)nicotinonitrile] was tested, and the IC50 was 50 nM.
N#Cc1cncc(-c2ccc3c(c2)OCCO3)c1Nc1ccc2[nH]ccc2c1 [Compound 264, 5-(2,3-dihydro-1,4-benzodioxin-6-yl)-4-(1H-indol-5-ylamino)nicotinonitrile] showed an IC50 of 60 nM.
N#Cc1cncc(-c2cncnc2)c1Nc1ccc2[nH]ccc2c1 [Compound 265, 4-(1H-indol-5-ylamino)-5-pyrimidin-5-ylnicotinonitrile] was tested, and the IC50 was 3860 nM.
For COc1ncc(-c2cncc(C#N)c2Nc2ccc3[nH]ccc3c2)cn1 [Compound 266, 4-(1H-indol-5-ylamino)-5-(2-methoxypyrimidin-5-yl)nicotinonitrile], the IC50 was 1450 nM.
In the case of N#Cc1cncc(-c2cccs2)c1Nc1ccc2[nH]ccc2c1 [Compound 267, 4-(1H-indol-5-ylamino)-5-(2-thienyl)nicotinonitrile], the IC50 is reported as 100 nM.
In the case of N#Cc1cncc(-c2cc3ccccc3o2)c1Nc1ccc2[nH]ccc2c1 [Compound 268, 5-(1-benzofuran-2-yl)-4-(1H-indol-5-ylamino)nicotinonitrile], the IC50 is reported as 10 nM.
Work on Cc1noc(C)c1-c1cncc(C#N)c1Nc1ccc2[nH]ccc2c1 [Compound 269, 5-(3,5-dimethylisoxazol-4-yl)-4-(1H-indol-5-ylamino)nicotinonitrile] yielded an IC50 of 10900 nM.
With N#Cc1cncc(-c2cccc(CO)c2)c1Nc1cccc2[nH]ccc12 [Compound 270, 5-[3-(hydroxymethyl)phenyl]-4-(1H-indol-4-ylamino)nicotinonitrile] the IC50 was 20 nM.
CN(C)Cc1cccc(-c2cncc(C#N)c2Nc2cccc3[nH]ccc23)c1 [Compound 271, 5-{3-[(dimethylamino)methyl]phenyl}-4-(1H-indol-4-ylamino)nicotinonitrile] was tested, and the IC50 was 100 nM.
For C#CCNCc1ccc2sc(-c3cncc(C#N)c3Nc3cccc4[nH]ccc34)cc2c1 [Compound 272, 4-(1H-indol-4-ylamino)-5-{5-[(prop-2-yn-1-ylamino)methyl]-1-benzothien-2-yl}nicotinonitrile], the IC50 was 4 nM.
CCCCNCc1ccc2sc(-c3cncc(C#N)c3Nc3cccc4[nH]ccc34)cc2c1 [Compound 273, 5-{5-[(butylamino)methyl]-1-benzothien-2-yl}-4-(1H-indol-4-ylamino)nicotinonitrile] gave an IC50 of 2 nM.
For N#Cc1cncc(-c2cc3cc(CNCCO)ccc3s2)c1Nc1cccc2[nH]ccc12 [Compound 274, 5-(5-{[(2-hydroxyethyl)amino]methyl}-1-benzothien-2-yl)-4-(1H-indol-4-ylamino)nicotinonitrile], the IC50 was 2 nM.
N#Cc1cncc(-c2cc3cc(CNCCCO)ccc3s2)c1Nc1cccc2[nH]ccc12 [Compound 275, 5-(5-{[(3-hydroxypropyl)amino]methyl}-1-benzothien-2-yl)-4-(1H-indol-4-ylamino)nicotinonitrile] was tested, and the IC50 was 2 nM.
Molecule COCCCNCc1ccc2sc(-c3cncc(C#N)c3Nc3cccc4[nH]ccc34)cc2c1 [Compound 276, 4-(1H-indol-4-ylamino)-5-(5-{[(3-methoxypropyl)amino]methyl}-1-benzothien-2-yl)nicotinonitrile] has an IC50 of 2 nM.
N#Cc1cncc(-c2cc3cc(CNCCCCO)ccc3s2)c1Nc1cccc2[nH]ccc12 [Compound 277, 5-(5-{[(4-hydroxybutyl)amino]methyl}-1-benzothien-2-yl)-4-(1H-indol-4-ylamino)nicotinonitrile] was tested, and the IC50 was 3 nM.
In the case of N#Cc1cncc(-c2cc3cc(CNC4CC4)ccc3s2)c1Nc1cccc2[nH]ccc12 [Compound 278, 5-{5-[(cyclopropylamino)methyl]-1-benzothien-2-yl}-4-(1H-indol-4-ylamino)nicotinonitrile], the IC50 is reported as 2 nM.
Molecule N#Cc1cncc(-c2cc3cc(CNCC4CC4)ccc3s2)c1Nc1cccc2[nH]ccc12 [Compound 279, 5-(5-{[(cyclopropylmethyl)amino]methyl}-1-benzothien-2-yl)-4-(1H-indol-4-ylamino)nicotinonitrile] has an IC50 of 1 nM.
Work on N#Cc1cncc(-c2cc3cc(CN4CCCC4)ccc3s2)c1Nc1cccc2[nH]ccc12 [Compound 280, 4-(1H-indol-4-ylamino)-5-[5-(pyrrolidin-1-ylmethyl)-1-benzothien-2-yl]nicotinonitrile] yielded an IC50 of 4 nM.
With N#Cc1cncc(-c2cc3cc(CN4CCOCC4)ccc3s2)c1Nc1cccc2[nH]ccc12 [Compound 281, 4-(1H-indol-4-ylamino)-5-[5-(morpholin-4-ylmethyl)-1-benzothien-2-yl]nicotinonitrile] the IC50 was 10 nM.
Work on N#Cc1cncc(-c2cc3cc(CNCCN4CCOCC4)ccc3s2)c1Nc1cccc2[nH]ccc12 [Compound 282, 4-(1H-indol-4-ylamino)-5-(5-{[(2-morpholin-4-ylethyl)amino]methyl}-1-benzothien-2-yl)nicotinonitrile] yielded an IC50 of 3 nM.
N#Cc1cncc(-c2cc3cc(CN4CCCCC4)ccc3s2)c1Nc1cccc2[nH]ccc12 [Compound 283, 4-(1H-indol-4-ylamino)-5-[5-(piperidin-1-ylmethyl)-1-benzothien-2-yl]nicotinonitrile] gave an IC50 of 2 nM.
N#Cc1cncc(-c2cc3cc(CN4CCC(CO)CC4)ccc3s2)c1Nc1cccc2[nH]ccc12 [Compound 284, 5-(5-{[4-(hydroxymethyl)piperidin-1-yl]methyl}-1-benzothien-2-yl)-4-(1H-indol-4-ylamino)nicotinonitrile] showed an IC50 of 4 nM.
For N#Cc1cncc(-c2cc3cc(CO)ccc3s2)c1Nc1cccc2[nH]ccc12 [Compound 285, 5-[5-(hydroxymethyl)-1-benzothien-2-yl]-4-(1H-indol-4-ylamino)nicotinonitrile], the IC50 was 4 nM.
Work on N#Cc1cncc(-c2cc3cc(CNCc4ccccc4)ccc3s2)c1Nc1cccc2[nH]ccc12 [Compound 286, 5-{5-[(benzylamino)methyl]-1-benzothien-2-yl}-4-(1H-indol-4-ylamino)nicotinonitrile] yielded an IC50 of 1 nM.
For N#Cc1cncc(-c2cc3cc(CNCCc4ccccc4)ccc3s2)c1Nc1cccc2[nH]ccc12 [Compound 287, 4-(1H-indol-4-ylamino)-5-(5-{[(2-phenylethyl)amino]methyl}-1-benzothien-2-yl)nicotinonitrile], the IC50 was 3 nM.
For N#Cc1cncc(-c2cc3cc(CNCc4ccccn4)ccc3s2)c1Nc1cccc2[nH]ccc12 [Compound 288, 4-(1H-indol-4-ylamino)-5-(5-{[(pyridin-2-ylmethyl)amino]methyl}-1-benzothien-2-yl)nicotinonitrile], the IC50 was 3 nM.
N#Cc1cncc(-c2cc3cc(CNCc4cccnc4)ccc3s2)c1Nc1cccc2[nH]ccc12 [Compound 289, 4-(1H-indol-4-ylamino)-5-(5-{[(pyridin-3-ylmethyl)amino]methyl}-1-benzothien-2-yl)nicotinonitrile] gave an IC50 of 4 nM.
Work on N#Cc1cncc(-c2cc3cc(CNCc4ccncc4)ccc3s2)c1Nc1cccc2[nH]ccc12 [Compound 290, 4-(1H-indol-4-ylamino)-5-(5-{[(pyridin-4-ylmethyl)amino]methyl}-1-benzothien-2-yl)nicotinonitrile] yielded an IC50 of 4 nM.
Work on CN(C)c1ccc(-c2cncc(C#N)c2Nc2cccnc2)cc1 [Compound 291, 5-[4-(dimethylamino)phenyl]-4-(pyridin-3-ylamino)nicotinonitrile] yielded an IC50 of 4860 nM.
CN(C)c1ccc(-c2cncc(C#N)c2Nc2ccc3[nH]ncc3c2)cc1 [Compound 292, 5-[4-(dimethylamino)phenyl]-4-(1H-indazol-5-ylamino)nicotinonitrile] showed an IC50 of 13200 nM.
In the case of CN(C)c1ccc(-c2cncc(C#N)c2Nc2ccc3cn[nH]c3c2)cc1 [Compound 293, 5-[4-(dimethylamino)phenyl]-4-(1H-indazol-6-ylamino)nicotinonitrile], the IC50 is reported as 36000 nM.
CN(C)c1ccc(-c2cncc(C#N)c2Nc2cc(O)[nH]n2)cc1 [Compound 294, 5-[4-(dimethylamino)phenyl]-4-[(5-hydroxy-1H-pyrazol-3-yl)amino]nicotinonitrile] showed an IC50 of 33400 nM.
COc1cccc(-c2cncc(C#N)c2Nc2ccc3[nH]ncc3c2)c1 [Compound 295, 4-(1H-indazol-5-ylamino)-5-(3-methoxyphenyl)nicotinonitrile] showed an IC50 of 2950 nM.
COc1cccc(-c2cncc(C#N)c2Nc2ccc3cn[nH]c3c2)c1 [Compound 296, 4-(1H-indazol-6-ylamino)-5-(3-methoxyphenyl)nicotinonitrile] gave an IC50 of 16200 nM.
